Source: the supplement of paper PMC10307832

Key:
Experiment in all cases: relative viability (nuclei count vs DMSO), 5 days (fraction); higher = more cells survive
[1] = compound: C1=CC2=NC=CN=C2C=C1/C=C/3\C(=O)NC(=O)S3 + Cc1nc(NC(=O)N2CCC[C@H]2C(N)=O)sc1-c1ccnc(C(C)(C)C(F)(F)F)c1 [Alpelisib] (partner 2 µM)
Summary of the method: (§1)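 After 5 days of treatment, lung cancer cells in 1536-well plates were fixed and stained in a single step (final 0.05% Triton X-100, 1% formaldehyde, 1 ug/ml Hoechst) and their nuclei counted on 4× images. Treatment had been applied by pin tool the day after seeding as one drug alone or as a fixed anchor-drug dose with five library-drug doses (not always all listed) in √10 steps. Relative viability is the nuclei count of treated wells divided by that of vehicle wells, and values are medians of duplicate plates.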

[2] = compound: C1=CC2=NC=CN=C2C=C1/C=C/3\C(=O)NC(=O)S3 + O=C(c1cc(Cc2n[nH]c(=O)c3ccccc23)ccc1F)N1CCN(C(=O)C2CC2)CC1 [Olaparib] (partner 8 µM)
Summary of the method: as §1

BGJ398 + Bortezomib = compound: CCN1CCN(c2ccc(Nc3cc(N(C)C(=O)Nc4c(Cl)c(OC)cc(OC)c4Cl)ncn3)cc2)CC1 [BGJ398] + CC(C)C[C@H](NC(=O)[C@H](Cc1ccccc1)NC(=O)c1cnccn1)B(O)O [Bortezomib] (partner 0.002 µM)
Summary of the method: as §1

BGJ398 + Linsitinib = compound: CCN1CCN(c2ccc(Nc3cc(N(C)C(=O)Nc4c(Cl)c(OC)cc(OC)c4Cl)ncn3)cc2)CC1 [BGJ398] + C[C@]1(O)C[C@@H](c2nc(-c3ccc4ccc(-c5ccccc5)nc4c3)c3c(N)nccn32)C1 [Linsitinib] (partner 1 µM)
Summary of the method: as §1

Row | Cell Line | relative viability ([1]; first compound 0.02 µM) | relative viability ([1]; first compound 0.06325 µM) | relative viability ([1]; first compound 0.2 µM) | relative viability ([1]; first compound 0.6325 µM) | relative viability ([1]; first compound 2 µM) | relative viability ([2]; first compound 0.02 µM) | relative viability ([2]; first compound 0.06325 µM) | relative viability ([2]; first compound 0.2 µM) | relative viability ([2]; first compound 0.6325 µM) | relative viability ([2]; first compound 2 µM) | relative viability (BGJ398 + Bortezomib; first compound 0.01 µM) | relative viability (BGJ398 + Bortezomib; first compound 0.03162 µM) | relative viability (BGJ398 + Bortezomib; first compound 0.1 µM) | relative viability (BGJ398 + Bortezomib; first compound 0.3162 µM) | relative viability (BGJ398 + Bortezomib; first compound 1 µM) | relative viability (BGJ398 + Linsitinib; first compound 0.01 µM) | relative viability (BGJ398 + Linsitinib; first compound 0.03162 µM) | relative viability (BGJ398 + Linsitinib; first compound 0.1 µM) | relative viability (BGJ398 + Linsitinib; first compound 0.3162 µM) | relative viability (BGJ398 + Linsitinib; first compound 1 µM)
1 | NCI-H1666 | 0.918 | 1.14 | 0.863 | 0.94 | 0.851 | 0.746 | 0.713 | 0.709 | 0.695 | 0.728 | 0.88 | 0.774 | 0.793 | 0.816 | 0.629 | 0.708 | 0.812 | 0.816 | 0.835 | 0.709
2 | LC-2-ad | 0.785 | 0.975 | 0.832 | 0.812 | 0.686 | 0.63 | 0.811 | 0.692 | 0.611 | 0.344 | 0.968 | 1.12 | 1.07 | 1.01 | 1.09 | 0.827 | 0.88 | 0.817 | 0.87 | 0.843
3 | SK-LU-1 | 1.01 | 1.5 | 1.21 | 1.05 | 0.968 | 0.477 | 0.42 | 0.488 | 0.521 | 0.465 | 1.11 | 1.27 | 1.51 | 1.14 | 1.14 | 1.1 | 1.01 | 1.2 | 1.15 | 1.21
4 | COR-L 105 | 1.22 | 0.861 | 0.901 | 1.02 | 0.751 | 0.674 | 0.711 | 0.701 | 0.819 | 0.723 | 0.717 | 0.514 | 0.703 | 0.792 | 0.73 | 0.824 | 1.09 | 0.851 | 0.777 | 0.8
5 | NCI-H1975 | 0.603 | 0.778 | 0.63 | 0.574 | 0.578 | 0.728 | 0.743 | 0.805 | 0.768 | 0.794 | 0.431 | 0.405 | 0.404 | 0.384 | 0.319 | 1.08 | 1.07 | 1.11 | 1.03 | 0.965
6 | Calu-6 | 1.02 | 1.11 | 1.04 | 0.902 | 0.845 | 0.602 | 0.621 | 0.597 | 0.592 | 0.568 | 0.923 | 0.963 | 1.01 | 1.07 | 0.982 | 0.932 | 0.969 | 0.901 | 0.922 | 0.952
7 | NCI-H1993 | 0.661 | 0.743 | 0.634 | 0.553 | 0.602 | 0.976 | 1.06 | 1.05 | 1.05 | 0.182 | 1.17 | 0.753 | 1.2 | 1.23 | 1.19 | 0.764 | 0.791 | 0.752 | 0.894 | 0.729
8 | RERF-LC-KJ | 0.633 | 0.816 | 0.832 | 0.786 | 0.788 | 0.893 | 0.937 | 1 | 0.888 | 0.939 | 1.06 | 1.17 | 1.2 | 1.31 | 1.18 | 0.863 | 0.894 | 0.901 | 0.865 | 0.945
9 | NCI-H23 | 0.67 | 0.803 | 0.589 | 0.692 | 0.567 | 0.236 | 0.326 | 0.313 | 0.35 | 0.255 | 0.946 | 1.05 | 1.19 | 1.2 | 1 | 0.582 | 0.597 | 0.564 | 0.568 | 0.48
10 | HCC-366 | 0.391 | 0.488 | 0.432 | 0.361 | 0.259 | 0.318 |  | 0.374 | 0.351 | 0.373 | 1.07 | 1.1 | 1.15 | 1.09 | 0.991 | 0.743 | 0.736 | 0.699 | 0.801 | 0.784
11 | EMC-BAC-2 | 0.707 | 0.784 | 0.756 | 0.709 | 0.75 | 0.463 | 0.498 | 0.572 | 0.489 | 0.39 | 1.05 | 1 | 1.14 | 1.08 | 1.01 | 0.815 | 0.785 | 0.842 | 0.825 | 0.872
12 | NCI-H2405 | 0.692 | 0.92 | 0.872 | 0.804 | 0.703 | 0.791 | 0.999 | 0.851 | 0.848 | 0.712 | 0.976 | 0.99 | 1 | 0.98 | 0.785 | 0.863 | 0.892 | 0.982 | 1.07 | 1.01
13 | EPLC-272H | 1.05 | 1.05 | 1.01 | 0.833 | 0.939 | 0.865 | 0.64 | 0.971 | 0.898 | 0.542 | 0.96 | 0.816 | 0.957 | 0.841 | 0.861 | 1.16 | 1.16 | 1.2 | 1 | 1.22
14 | EBC-1 | 0.819 | 1.05 | 0.788 | 0.849 | 0.854 | 0.626 | 0.84 | 0.754 | 0.76 | 0.723 | 0.616 | 0.614 | 0.589 | 0.53 | 0.526 | 0.875 | 0.968 | 0.941 | 0.877 | 0.703
15 | NCI-H1915 | 1.02 | 1.17 | 1.03 | 1.04 | 1.06 | 0.25 | 0.248 | 0.281 | 0.249 | 0.258 | 0.952 | 0.972 | 0.969 | 0.977 | 0.864 | 1.05 | 1.04 | 1.12 | 1.19 | 1.13
16 | NCI-H596 | 0.486 | 0.451 | 0.469 | 0.537 | 0.502 | 0.712 | 0.719 | 0.677 | 0.726 | 0.729 | 0.988 | 0.72 | 0.96 | 1.04 | 0.769 | 0.864 | 1 | 1.12 | 0.957 | 0.942
